Source: patent US20190345202A1, “ANDROGEN RECEPTOR ANTISENSE OLIGONUCLEOTIDES” (OliPass Corporation, priority 2016, published 2019)
[C(1O2)] = PNA monomer with modified cytosine C(1O2), structure; [A(5)] = PNA monomer with modified adenine A(5), structure; {Fethoc} = Fethoc group on PNA N-terminus; {NH2} = C-terminal amide

Columns and labels:
androgen receptor = test: AR IHC of skin samples after topical administration in mice; type: in vivo, mouse; settings: topical 1, 5, or 25 fM, skin samples Day 30
From the text: [AR IHC of Skin Sample] Following the shaving in Day 21, the mice received a single topical administration of either vehicle or “ASO 1” according to the group. In Day 24, the skin of the area with hair removal was sampled for immunohistochemistry (IHC) analysis against androgen receptor. The skin samples were cryo-sectioned and subjected to immunostaining in series with a primary anti-AR antibody (Cat. No. sc-816, Santa Cruz) at 1:100 dilution, with a secondary anti-IgG (Cat No. BA-1100, Vector) at 1:200 dilution, and then with Dylight 594-steptavidin (Cat No. SA-5594, Vector, Calif., USA) at 1:200 dilution for red fluoresence tagging. The IHC images were captured on an Olympus fluorescence microscope for changes in the AR expression level upon topical treatment with “ASO 1”.
[AR Immunohistochemistry of Skin Samples] After the hair cut in Day 27, The animals topically received further either vehicle or “ASO 10” at 1, 5, or 25 fM in Days 27 and 29. Skin samples of the back were collected in Day 30 for immunohistochemical analysis against androgen receptor. The skin samples were subjected to immunostaining against androgen receptor as described in “Example 7”. IHC images were captured on a Zeiss slide scanner. FIG. 14B is a representative set of AR IHC images. […] It would be difficult to clearly state that the AR expression in hair follicles decreased in the treatment groups due to the marked increases in the number of hair follicles in the treatment groups.

human AR mRNA = test: qPCR (TaqMan probe) of AR mRNA level in MCF7 cells; type: cell-based; settings: 1 zM to 1 aM, 24 hours
From the text: The qPCR reaction was monitored with a TaqMan probe of [(5′→3′) TTTCTTCAG-ZEN-CTTCCGGGCTC-3IABkFQ (SEQ ID NO: 19)].

AR protein = test: AR IHC of tissues of mice subcutaneously administered; type: in vivo, mouse; settings: subcutaneous, dose increased from 0.01 to 0.1 pmole/Kg, 2× per week for 4 weeks, male C57BL/6 mice
From the text: 12 weeks old male C57BL/6 mice were randomly assigned to 3 groups of negative control (no ASO treatment), 0.01 pmole/Kg “ASO 10” and 0.1 pmole/Kg “ASO 10”. (3 animals per group) Mice subcutaneously received either vehicle or ASO dissolved in vehicle (PBS) 2× per week for 4 weeks according to the dosing group. Three days post the final dosing, the animals were anesthetized with zoletil/rompun and subjected to tissue or organ sampling for AR IHC by paraffin blolck.
The AR protein was probed in series with a primary antibody (Cat. No. sc-816, Santa Cruz) at 1:100 dilution, a secondary anti-rabbit IgG (Cat. No. BA-1100, VECTOR) at 1:200 dilution, and Dylight 594-Streptavidin (Cat. No. SA-5594, VECTOR) at 1:200. Nucleus was stained with DAPI. IHC fluorescence images were captured on a Zeiss slide scanner.

human AR pre-mRNA = test: AR nested PCR for skipping of AR exon 5 in MCF7 cells; type: cell-based; settings: 3 aM to 3 fM, 3 hours
Method: “ASO 5” was evaluated by AR nested PCR for its ability to induce the skipping of AR “exon 5” in MCF7 cells (Cat. Number: HTB-22, ATCC). The employed procedures are detailed as follows.
[Cell Culture & ASO Treatment] MCF7 cells were grown in EMEM medium supplemented with 10% FBS, 1% streptomycin/penicillin, and 0.01 mg/ml bovine insulin under 5% CO2 atmosphere at 37° C. Cells were sub-cultured in 60 mm culture dish prior to treatment with “ASO 5” at 3 aM to 3 fM.
[RNA Extraction] MCF7 cells were incubated with or without “ASO 5” for 3 hours. Total RNA was extracted from cells in 60 mm culture dish using “Universal RNA Extraction Kit” (Cat. No. 9767, Takara) according to the manufacturer's instructions [cDNA Synthesis by One-step PCR]
[Nested PCR Amplification] Throughout the amplification process, was used a unique amplification technique (touch up as increasing annealing temperature per cycle) that worked efficiently and specifically over a temperature range, rather than at one specific annealing temperature (i.e. conventional PCR method). […]
[Identification of Exon Skipping Products] […] The bands of target size were collected and analyzed by Sanger Sequencing. […]

Substance | number of hair follicles vs negative control group (IHC images) (androgen receptor) | AR expression in the muscle layer underneath the dermis (IHC) (androgen receptor; most notable at 5 fM) | decrease of relative expression level of exons 4-6 (TaqMan) (human AR mRNA) | AR expression in epidermis distal to the injection site, liver, testis and prostate (IHC) (AR protein) | exon skipping (AR mRNA splice variants by nested PCR and Sanger sequencing) (human AR pre-mRNA)
Fethoc-C(1O2)TT-A(5)CC-A(5)GG(6)-CA(5)A-NH2 (antisense CTTACCAGGCAA; N-Fethoc, C-terminal amide, chemistry not fully specified) [ASO 10] | increased markedly | markedly decreased | 50 to 70% | markedly decreased | 
Fethoc-C(1O2)TT-A(5)CC-A(5)GG-C(1O2)AA(5)-G-NH2 (antisense CTTACCAGGCAAG; all peptide nucleic acid (PNA), [C(1O2)] at 1, 10, [A(5)] at 4, 7, 12, 5' {Fethoc}, 3' {NH2}; peptide nucleic acid, written N to C terminus) [ASO 5] |  |  |  |  | induce the skipping of “exon 5”, “exons 4-5”, and “exons 4-6”
